From publication PMC7614683, “A small molecule PI3Kα activator for cardioprotection and neuroregeneration” (Nature, 2023)
Where two headings read alike, the source gives them in different places.

Tests used:
Assay in all cases: SelectScreen Z-LYTE kinase activity assay (SI Table 6)
Type in all cases: biochemical
[1] = biological target: protein kinases of the Z-LYTE panel (Homo sapiens, UniProt P04626)
Summary of the method: (§1)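 Percent effect values derive from SelectScreen Adapta, Lantha and Z-LYTE assays in which 1938 was present at 1 μM, spanning 133 protein kinases and 7 lipid kinases.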

[2] = biological target: protein kinases of the Z-LYTE panel (Homo sapiens, UniProt P10721)
protein kinases of the Z-LYTE panel (Homo sapiens, UniProt P10721), sequence (P10721 26-976): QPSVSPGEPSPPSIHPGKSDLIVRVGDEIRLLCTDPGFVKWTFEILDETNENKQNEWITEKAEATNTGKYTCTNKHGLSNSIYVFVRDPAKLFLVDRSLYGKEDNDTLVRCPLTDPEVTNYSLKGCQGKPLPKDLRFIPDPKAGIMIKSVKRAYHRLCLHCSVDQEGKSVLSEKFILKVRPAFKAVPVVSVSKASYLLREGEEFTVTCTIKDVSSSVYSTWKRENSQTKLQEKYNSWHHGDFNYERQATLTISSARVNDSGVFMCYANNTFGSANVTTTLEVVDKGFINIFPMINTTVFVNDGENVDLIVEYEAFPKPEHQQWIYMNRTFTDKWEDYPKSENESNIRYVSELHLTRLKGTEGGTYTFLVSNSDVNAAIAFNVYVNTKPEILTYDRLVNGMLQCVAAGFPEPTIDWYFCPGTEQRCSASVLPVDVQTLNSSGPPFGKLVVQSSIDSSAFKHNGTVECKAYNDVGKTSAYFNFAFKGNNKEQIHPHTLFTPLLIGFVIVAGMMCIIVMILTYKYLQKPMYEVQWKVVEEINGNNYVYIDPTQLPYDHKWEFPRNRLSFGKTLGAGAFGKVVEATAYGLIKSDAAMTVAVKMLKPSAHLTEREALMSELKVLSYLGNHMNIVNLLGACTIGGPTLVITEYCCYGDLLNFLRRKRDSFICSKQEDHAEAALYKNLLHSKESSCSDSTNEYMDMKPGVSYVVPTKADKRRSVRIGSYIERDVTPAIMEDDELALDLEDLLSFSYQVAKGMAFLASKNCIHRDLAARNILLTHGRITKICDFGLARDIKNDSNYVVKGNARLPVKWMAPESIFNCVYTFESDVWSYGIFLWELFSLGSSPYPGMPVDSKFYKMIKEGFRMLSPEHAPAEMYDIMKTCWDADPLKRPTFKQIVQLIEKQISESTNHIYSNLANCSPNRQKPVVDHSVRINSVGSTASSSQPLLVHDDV
Summary of the method: as §1

[3] = biological target: protein kinases of the Z-LYTE panel (Homo sapiens, UniProt P16591)
protein kinases of the Z-LYTE panel (Homo sapiens, UniProt P16591), sequence (P16591 whole entry): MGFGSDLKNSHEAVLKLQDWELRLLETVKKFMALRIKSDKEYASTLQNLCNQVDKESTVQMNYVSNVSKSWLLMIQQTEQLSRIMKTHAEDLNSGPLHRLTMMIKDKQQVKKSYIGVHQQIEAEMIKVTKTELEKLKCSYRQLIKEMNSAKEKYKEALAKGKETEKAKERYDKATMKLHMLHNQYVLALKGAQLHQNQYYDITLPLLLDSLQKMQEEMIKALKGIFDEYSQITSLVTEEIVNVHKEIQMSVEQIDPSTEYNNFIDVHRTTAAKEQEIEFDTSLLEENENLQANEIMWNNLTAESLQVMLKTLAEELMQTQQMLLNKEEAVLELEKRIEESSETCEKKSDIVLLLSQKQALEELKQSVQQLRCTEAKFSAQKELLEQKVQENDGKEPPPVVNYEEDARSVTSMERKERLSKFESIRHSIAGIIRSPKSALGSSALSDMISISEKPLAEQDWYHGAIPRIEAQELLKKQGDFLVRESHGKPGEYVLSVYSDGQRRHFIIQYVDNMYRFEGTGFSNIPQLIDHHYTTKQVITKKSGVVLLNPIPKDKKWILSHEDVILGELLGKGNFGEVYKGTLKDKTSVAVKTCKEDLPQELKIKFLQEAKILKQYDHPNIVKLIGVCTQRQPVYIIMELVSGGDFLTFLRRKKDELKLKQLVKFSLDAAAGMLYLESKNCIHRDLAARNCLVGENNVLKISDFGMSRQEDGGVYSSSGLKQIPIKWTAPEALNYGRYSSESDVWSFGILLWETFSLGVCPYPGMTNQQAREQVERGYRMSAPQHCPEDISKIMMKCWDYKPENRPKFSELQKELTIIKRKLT
Summary of the method: as §1

[4] = biological target: protein kinases of the Z-LYTE panel (Homo sapiens, UniProt P31749)
protein kinases of the Z-LYTE panel (Homo sapiens, UniProt P31749), sequence (P31749 whole entry): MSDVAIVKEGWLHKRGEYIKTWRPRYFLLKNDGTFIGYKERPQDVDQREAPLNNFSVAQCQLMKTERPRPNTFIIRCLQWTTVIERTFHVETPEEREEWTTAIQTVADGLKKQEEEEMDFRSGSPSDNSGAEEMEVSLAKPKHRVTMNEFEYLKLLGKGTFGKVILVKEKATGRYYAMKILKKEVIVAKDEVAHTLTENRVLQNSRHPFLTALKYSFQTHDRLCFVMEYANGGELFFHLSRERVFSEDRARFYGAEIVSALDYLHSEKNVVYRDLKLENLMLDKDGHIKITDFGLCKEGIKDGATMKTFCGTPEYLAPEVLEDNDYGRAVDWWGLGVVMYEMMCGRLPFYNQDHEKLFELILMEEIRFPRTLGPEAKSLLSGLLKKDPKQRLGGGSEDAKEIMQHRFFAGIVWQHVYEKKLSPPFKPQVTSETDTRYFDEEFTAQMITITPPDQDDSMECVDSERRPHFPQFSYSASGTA
Summary of the method: as §1

[5] = biological target: T1, protein kinases of the Z-LYTE panel (Homo sapiens, UniProt P36896)
T1 sequence (P36896 24-505): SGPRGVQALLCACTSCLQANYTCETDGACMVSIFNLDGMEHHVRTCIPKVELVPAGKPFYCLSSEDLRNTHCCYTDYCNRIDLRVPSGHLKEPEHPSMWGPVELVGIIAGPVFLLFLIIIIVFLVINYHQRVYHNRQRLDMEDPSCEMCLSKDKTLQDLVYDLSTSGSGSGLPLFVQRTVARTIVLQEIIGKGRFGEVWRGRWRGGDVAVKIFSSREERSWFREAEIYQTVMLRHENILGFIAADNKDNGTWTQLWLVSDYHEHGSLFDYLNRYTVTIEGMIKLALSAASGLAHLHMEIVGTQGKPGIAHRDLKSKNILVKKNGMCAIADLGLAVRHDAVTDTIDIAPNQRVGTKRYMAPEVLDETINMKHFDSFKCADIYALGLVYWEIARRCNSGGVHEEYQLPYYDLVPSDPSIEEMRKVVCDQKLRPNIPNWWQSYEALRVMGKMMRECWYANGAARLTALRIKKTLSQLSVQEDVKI
Summary of the method: as §1

[6] = biological target: protein kinases of the Z-LYTE panel (Homo sapiens, UniProt P49840)
protein kinases of the Z-LYTE panel (Homo sapiens, UniProt P49840), sequence (P49840 whole entry): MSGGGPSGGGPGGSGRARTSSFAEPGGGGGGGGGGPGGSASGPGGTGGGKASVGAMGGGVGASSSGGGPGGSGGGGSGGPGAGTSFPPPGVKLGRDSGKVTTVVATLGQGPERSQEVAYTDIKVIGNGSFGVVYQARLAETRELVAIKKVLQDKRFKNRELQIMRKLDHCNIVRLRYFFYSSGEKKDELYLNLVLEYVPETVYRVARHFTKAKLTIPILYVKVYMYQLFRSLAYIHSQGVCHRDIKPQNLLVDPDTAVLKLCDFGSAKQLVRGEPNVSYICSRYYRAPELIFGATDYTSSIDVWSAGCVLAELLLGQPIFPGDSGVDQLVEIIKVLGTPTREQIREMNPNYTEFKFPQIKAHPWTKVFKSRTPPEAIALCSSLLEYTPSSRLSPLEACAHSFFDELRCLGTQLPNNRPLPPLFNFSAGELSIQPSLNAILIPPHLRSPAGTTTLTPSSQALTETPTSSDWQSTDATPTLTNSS
Summary of the method: as §1

[7] = biological target: protein kinases of the Z-LYTE panel (Homo sapiens, UniProt Q02750); conditions: MAP2K1 (MEK1), 1000 nM, [ATP] 100 μM
protein kinases of the Z-LYTE panel (Homo sapiens, UniProt Q02750), sequence (Q02750 whole entry): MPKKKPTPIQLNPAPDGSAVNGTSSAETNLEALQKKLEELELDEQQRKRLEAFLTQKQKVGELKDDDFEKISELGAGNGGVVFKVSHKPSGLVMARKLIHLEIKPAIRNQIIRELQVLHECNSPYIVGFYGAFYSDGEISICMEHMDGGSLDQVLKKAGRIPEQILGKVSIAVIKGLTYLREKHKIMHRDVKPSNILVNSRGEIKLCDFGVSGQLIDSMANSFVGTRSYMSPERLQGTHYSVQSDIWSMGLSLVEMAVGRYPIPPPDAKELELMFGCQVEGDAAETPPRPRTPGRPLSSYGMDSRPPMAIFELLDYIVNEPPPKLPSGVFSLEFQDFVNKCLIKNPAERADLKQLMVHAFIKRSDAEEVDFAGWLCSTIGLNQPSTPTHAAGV
Summary of the method: as §1

[8] = biological target: protein kinases of the Z-LYTE panel (Homo sapiens, UniProt Q9H792)
Summary of the method: as §1

[9] = biological target: protein kinases of the Z-LYTE panel (Homo sapiens, UniProt Q9UM73)
protein kinases of the Z-LYTE panel (Homo sapiens, UniProt Q9UM73), sequence (Q9UM73 19-1620): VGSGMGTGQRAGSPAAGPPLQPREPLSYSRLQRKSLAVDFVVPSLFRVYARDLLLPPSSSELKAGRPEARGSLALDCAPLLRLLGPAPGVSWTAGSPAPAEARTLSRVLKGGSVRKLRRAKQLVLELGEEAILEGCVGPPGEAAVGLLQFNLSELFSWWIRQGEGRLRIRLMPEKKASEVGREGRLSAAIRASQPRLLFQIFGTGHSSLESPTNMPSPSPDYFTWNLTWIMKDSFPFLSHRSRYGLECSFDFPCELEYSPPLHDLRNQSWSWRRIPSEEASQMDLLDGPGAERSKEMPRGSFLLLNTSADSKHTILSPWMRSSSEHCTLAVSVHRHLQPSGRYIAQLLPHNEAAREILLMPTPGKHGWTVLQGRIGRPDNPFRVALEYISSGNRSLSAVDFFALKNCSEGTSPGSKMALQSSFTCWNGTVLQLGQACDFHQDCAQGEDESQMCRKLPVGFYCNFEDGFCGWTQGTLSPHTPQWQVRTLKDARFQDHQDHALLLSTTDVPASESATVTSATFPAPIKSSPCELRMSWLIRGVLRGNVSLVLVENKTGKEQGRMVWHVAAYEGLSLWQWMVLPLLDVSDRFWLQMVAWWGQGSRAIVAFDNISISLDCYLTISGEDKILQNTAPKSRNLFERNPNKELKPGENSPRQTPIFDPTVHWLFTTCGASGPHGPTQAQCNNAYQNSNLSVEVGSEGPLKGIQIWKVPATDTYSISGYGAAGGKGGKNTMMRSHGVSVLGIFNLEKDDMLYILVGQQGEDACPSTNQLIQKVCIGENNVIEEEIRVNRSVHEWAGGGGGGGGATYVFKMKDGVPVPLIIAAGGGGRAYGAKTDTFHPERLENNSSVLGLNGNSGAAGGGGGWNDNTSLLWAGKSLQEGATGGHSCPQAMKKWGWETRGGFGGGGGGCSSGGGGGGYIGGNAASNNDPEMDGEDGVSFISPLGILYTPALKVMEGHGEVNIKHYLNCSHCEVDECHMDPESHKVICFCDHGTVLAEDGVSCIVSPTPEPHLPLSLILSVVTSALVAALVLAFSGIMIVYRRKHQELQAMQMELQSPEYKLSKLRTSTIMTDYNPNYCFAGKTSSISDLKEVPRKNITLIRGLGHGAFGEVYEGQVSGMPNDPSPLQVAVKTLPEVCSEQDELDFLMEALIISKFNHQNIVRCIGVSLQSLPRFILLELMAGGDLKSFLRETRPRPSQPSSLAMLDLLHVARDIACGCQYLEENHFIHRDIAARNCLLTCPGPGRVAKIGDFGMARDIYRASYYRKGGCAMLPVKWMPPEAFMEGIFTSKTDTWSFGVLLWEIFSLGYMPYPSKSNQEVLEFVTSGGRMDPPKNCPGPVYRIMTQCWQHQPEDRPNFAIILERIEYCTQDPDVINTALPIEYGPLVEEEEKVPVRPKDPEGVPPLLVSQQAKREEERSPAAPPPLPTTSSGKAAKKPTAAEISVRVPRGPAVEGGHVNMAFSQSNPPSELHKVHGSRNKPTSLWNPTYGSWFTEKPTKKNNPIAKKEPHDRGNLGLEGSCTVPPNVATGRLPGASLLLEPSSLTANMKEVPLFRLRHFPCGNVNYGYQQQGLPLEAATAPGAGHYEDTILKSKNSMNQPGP
Summary of the method: as §1

Compound `CCN1CCN(c2ccc(Nc3cc(Nc4cccc5c4N(C(C)=O)CC5)ccn3)cc2)CC1` [Compound 1938] has an inhibition at 1 µM ([1]; read-out: % Inhibition Point 1) of -2.48%, an inhibition at 1 µM ([1]; read-out: % Inhibition Point 2) of 2.33% and an inhibition at 1 µM ([1]; read-out: % Inhibition mean) of -0.0739%. For the same compound, the inhibition at 1 µM ([2]; read-out: % Inhibition Point 1) was 6.43%, the inhibition at 1 µM ([2]; read-out: % Inhibition Point 2) was 8% and the inhibition at 1 µM ([2]; read-out: % Inhibition mean) was 7%. It also gave an inhibition at 1 µM ([3]; read-out: % Inhibition Point 1) of -5.31%, an inhibition at 1 µM ([3]; read-out: % Inhibition Point 2) of -2.44% and an inhibition at 1 µM ([3]; read-out: % Inhibition mean) of -4%. The inhibition at 1 µM ([4]; read-out: % Inhibition Point 1) was 4.32%, the inhibition at 1 µM ([4]; read-out: % Inhibition Point 2) was 3.3% and the inhibition at 1 µM ([4]; read-out: % Inhibition mean) was 4%. For the same compound, the inhibition at 1 µM ([5]; read-out: % Inhibition Point 1) was -27%, the inhibition at 1 µM ([5]; read-out: % Inhibition Point 2) was -3% and the inhibition at 1 µM ([5]; read-out: % Inhibition mean) was -15%. The inhibition at 1 µM ([6]; read-out: % Inhibition Point 1) was 0.632%, the inhibition at 1 µM ([6]; read-out: % Inhibition Point 2) was 0.0257% and the inhibition at 1 µM ([6]; read-out: % Inhibition mean) was 0.329%. The inhibition at 1 µM ([7]; read-out: % Inhibition Point 1) was 4%, the inhibition at 1 µM ([7]; read-out: % Inhibition Point 2) was 3.36% and the inhibition at 1 µM ([7]; read-out: % Inhibition mean) was 3.61%. For the same compound, the inhibition at 1 µM ([8]; read-out: % Inhibition Point 1) was 25%, the inhibition at 1 µM ([8]; read-out: % Inhibition Point 2) was 18% and the inhibition at 1 µM ([8]; read-out: % Inhibition mean) was 21%. It also gave an inhibition at 1 µM ([9]; read-out: % Inhibition Point 1) of 11%, an inhibition at 1 µM ([9]; read-out: % Inhibition Point 2) of 15% and an inhibition at 1 µM ([9]; read-out: % Inhibition mean) of 13%.
